Legend:
Cyclooxygenase = molecular target: T1, Cyclooxygenase (Rattus norvegicus, UniProt P35355+Q63921); test: Inhibition of cyclooxygenase in rat RBL1 cells; format: cell-based; conditions: rbl-1
T1 sequence (P35355 whole entry): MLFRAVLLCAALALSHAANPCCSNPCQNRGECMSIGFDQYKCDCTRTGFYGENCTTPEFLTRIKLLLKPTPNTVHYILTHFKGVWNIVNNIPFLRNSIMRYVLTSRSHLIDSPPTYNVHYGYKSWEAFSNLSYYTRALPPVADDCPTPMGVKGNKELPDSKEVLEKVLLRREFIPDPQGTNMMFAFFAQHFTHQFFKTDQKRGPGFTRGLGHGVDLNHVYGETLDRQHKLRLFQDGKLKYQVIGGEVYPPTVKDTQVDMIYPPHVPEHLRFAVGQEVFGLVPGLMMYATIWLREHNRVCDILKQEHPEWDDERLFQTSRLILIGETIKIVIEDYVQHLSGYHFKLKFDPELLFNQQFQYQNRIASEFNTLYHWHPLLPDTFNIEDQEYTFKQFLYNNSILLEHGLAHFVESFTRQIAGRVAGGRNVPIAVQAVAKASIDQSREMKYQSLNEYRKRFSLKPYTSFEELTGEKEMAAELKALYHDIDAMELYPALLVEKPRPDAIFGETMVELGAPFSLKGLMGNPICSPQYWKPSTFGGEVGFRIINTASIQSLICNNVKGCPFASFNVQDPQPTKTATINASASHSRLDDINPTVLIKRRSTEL
T1 sequence (Q63921 whole entry): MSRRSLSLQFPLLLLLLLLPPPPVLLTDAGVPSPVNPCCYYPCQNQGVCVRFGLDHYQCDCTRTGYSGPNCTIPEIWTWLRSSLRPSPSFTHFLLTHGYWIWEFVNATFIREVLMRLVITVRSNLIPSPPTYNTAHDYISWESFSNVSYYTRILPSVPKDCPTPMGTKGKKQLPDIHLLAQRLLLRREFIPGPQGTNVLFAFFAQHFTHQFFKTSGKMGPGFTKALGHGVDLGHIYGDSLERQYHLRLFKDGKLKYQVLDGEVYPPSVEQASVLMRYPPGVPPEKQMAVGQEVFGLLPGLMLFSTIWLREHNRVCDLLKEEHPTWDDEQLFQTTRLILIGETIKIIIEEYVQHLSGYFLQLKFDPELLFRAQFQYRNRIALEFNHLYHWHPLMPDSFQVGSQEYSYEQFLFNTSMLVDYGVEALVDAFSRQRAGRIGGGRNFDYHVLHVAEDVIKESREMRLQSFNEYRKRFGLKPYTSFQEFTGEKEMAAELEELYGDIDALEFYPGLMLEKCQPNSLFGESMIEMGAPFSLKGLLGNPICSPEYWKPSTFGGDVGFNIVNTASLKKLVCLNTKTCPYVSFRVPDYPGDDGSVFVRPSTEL

[1] = molecular target: T2, Polyunsaturated fatty acid 5-lipoxygenase (Rattus norvegicus, UniProt P12527); test: Inhibition of 5-lipoxygenase in rat RBL1 cells; format: cell-based, RBL-1
T2 sequence (P12527 whole entry): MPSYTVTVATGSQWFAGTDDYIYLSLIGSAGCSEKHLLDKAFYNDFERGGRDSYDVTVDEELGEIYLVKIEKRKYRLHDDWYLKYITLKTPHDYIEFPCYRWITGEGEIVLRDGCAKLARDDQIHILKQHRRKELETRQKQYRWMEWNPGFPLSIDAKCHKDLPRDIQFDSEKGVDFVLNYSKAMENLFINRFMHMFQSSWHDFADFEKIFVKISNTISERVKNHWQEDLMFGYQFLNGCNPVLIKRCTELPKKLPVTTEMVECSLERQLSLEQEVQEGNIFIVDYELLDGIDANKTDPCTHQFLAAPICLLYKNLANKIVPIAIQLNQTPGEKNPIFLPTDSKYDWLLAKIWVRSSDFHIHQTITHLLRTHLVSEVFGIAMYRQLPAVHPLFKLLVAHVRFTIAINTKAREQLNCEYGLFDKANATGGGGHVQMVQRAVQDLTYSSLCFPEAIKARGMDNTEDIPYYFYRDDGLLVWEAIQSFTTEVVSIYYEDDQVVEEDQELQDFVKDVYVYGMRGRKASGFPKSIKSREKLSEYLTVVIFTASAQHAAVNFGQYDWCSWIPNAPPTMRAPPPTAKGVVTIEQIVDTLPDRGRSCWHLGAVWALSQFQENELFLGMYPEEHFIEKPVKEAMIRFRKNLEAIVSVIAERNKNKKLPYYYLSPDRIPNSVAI

SMILES	IC50 (Cyclooxygenase)	IC50 [1]
COc1ccc(/C=C/C(=O)c2ccccc2)c(OC)c1	10 µM	10 µM
COc1ccc(/C=C/C(=O)c2ccccc2)cc1OC	18 µM	18 µM
O=C(/C=C/c1ccc(O)c(O)c1)c1ccccc1	0.043 µM	
COc1ccc(O)c(/C=C/C(=O)c2ccccc2)c1	41 µM	41 µM
COc1cccc(/C=C/C(=O)c2ccccc2)c1	6.5 µM	6.5 µM
COc1ccccc1/C=C/C(=O)c1ccccc1	27 µM	27 µM
CC(C)Oc1ccc(O)c(C(=O)/C=C/c2ccccc2)c1	11 µM	11 µM
COc1ccc(OC)c(/C=C/C(=O)c2ccccc2)c1	7.8 µM	7.8 µM
CN(C)c1ccc(/C=C/C(=O)c2ccccc2)cc1	4.7 µM	4.7 µM
O=C(/C=C/c1ccc(O)cc1)c1ccc(O)cc1O [ISOLIQUIRITIGENIN]	35 µM	
O=C(/C=C/c1ccccc1)c1ccccc1 [CHALCONE]	43 µM	43 µM
O=C(/C=C/c1ccc([N+](=O)[O-])cc1)c1ccccc1	23 µM	23 µM
CC(C)Oc1ccc(/C=C/C(=O)c2ccccc2)cc1	41 µM	41 µM
COc1cc(/C=C/C(=O)c2ccccc2)ccc1O	9 µM	9 µM
CCOc1ccc(OCC)c(C(=O)/C=C/c2ccccc2)c1	2.4 µM	2.4 µM
Cc1cccc(/C=C/C(=O)c2ccccc2)c1	27 µM	27 µM
COc1ccc(/C=C/C(=O)c2ccccc2)c(O)c1	15 µM	15 µM
Cc1cc(C)c(/C=C/C(=O)c2ccccc2)c(C)c1	400 µM	400 µM
O=C(/C=C/c1ccc(O)c(O)c1)c1c(O)cc(O)cc1O [3,4,2',4',6'-PENTAHYDROXYCHALCONE]	0.14 µM	
COc1ccc(/C=C/C(=O)c2ccccc2)cc1 [4-METHOXY CHALCONE]	20 µM	20 µM
CC(C)c1ccc(O)c(C(=O)/C=C/c2ccccc2)c1	4 µM	4 µM
O=C(/C=C/c1ccc(O)c(O)c1)c1ccc(O)cc1O [BUTEIN]	0.0046 µM	
COc1cc(/C=C/C(=O)c2ccc(Cl)cc2)ccc1O	8.9 µM	
COc1ccc(O)c(C(=O)/C=C/c2ccccc2)c1	41 µM	41 µM
CCCCOc1ccc(O)c(C(=O)/C=C/c2ccccc2)c1	1 µM	1 µM
O=C(/C=C/c1ccccc1Cl)c1ccccc1	92 µM	92 µM
CCOc1ccc(OC)cc1C(=O)/C=C/c1ccccc1	27 µM	27 µM
CCOc1ccc(OC)c(C(=O)/C=C/c2ccccc2)c1	38 µM	38 µM

Second part, the compound after the results:

IC50 (Cyclooxygenase)	IC50 [1]	SMILES
16 µM	16 µM	Cc1ccc(C)c(C(=O)/C=C/c2ccccc2)c1
5.3 µM	5.3 µM	CCOc1ccc(O)c(C(=O)/C=C/c2ccccc2)c1
39 µM	39 µM	Cc1ccc(O)c(C(=O)/C=C/c2ccccc2)c1
0.0042 µM		O=C(/C=C/c1ccc(O)c(O)c1)c1cccc(O)c1
24 µM	24 µM	COc1ccc(C)cc1C(=O)/C=C/c1ccccc1
64 µM	64 µM	O=C(/C=C/c1ccccc1)c1cc(O)ccc1O
7.8 µM	7.8 µM	COc1ccc(OC)c(C(=O)/C=C/c2ccccc2)c1
12 µM		COc1ccc(C(=O)/C=C/c2ccc(O)c(OC)c2)cc1
0.023 µM		O=C(/C=C/c1ccc(O)c(O)c1)c1ccccc1O
17 µM	17 µM	Cc1ccc(/C=C/C(=O)c2ccccc2)c(C)c1
76 µM	76 µM	Cc1ccc(/C=C/C(=O)c2ccccc2)cc1
16 µM	16 µM	COc1cc(/C=C/C(=O)c2ccccc2)cc(OC)c1OC
9.8 µM	9.8 µM	CN(C)c1cccc(/C=C/C(=O)c2ccccc2)c1
58 µM	58 µM	O=C(/C=C/c1ccccc1C(F)(F)F)c1ccccc1
370 µM	370 µM	COc1cccc(OC)c1/C=C/C(=O)c1ccccc1
14 µM	14 µM	COc1ccc(OC(C)C)cc1C(=O)/C=C/c1ccccc1
85 µM	85 µM	O=C(/C=C/c1ccc(Cl)cc1)c1ccccc1 [4-CHLORO CHALCONE]

From ChEMBL document CHEMBL2429716, “Molecular modeling studies of substituted 3,4-dihydroxychalcone derivatives as 5-lipoxygenase and cyclooxygenase inhibitors” (Med Chem Res, 2013)
